In PubChem BioAssay (NCI):
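Cultured in 96-well plates, cells were exposed to test compound for 48 hours across five concentrations. Abbreviation: GI50, concentration required for 50% inhibition of growth. The concentration for full growth arrest is given as TGI.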

Assays:
Assay in all cases: NCI-60 cell line screen, 48 h
HOP-92 NSCLC = tested on: HOP-92 NSCLC
HCT-15 colon = tested on: HCT-15 colon
NCI-H226 lung = tested on: NCI-H226 lung
A498 renal = tested on: A498 renal
SF-295 CNS = tested on: SF-295 CNS
MOLT-4 leukemia = tested on: MOLT-4 leukemia
RPMI-8226 leukemia = tested on: RPMI-8226 leukemia
MCF7 breast = tested on: MCF7 breast
NCI/ADR-RES ovarian = tested on: NCI/ADR-RES ovarian
HS 578T breast = tested on: HS 578T breast

For `N#CC(C(=O)/C(=N\NC(N)=O)C(C#N)c1ccccc1)c1ccccc1` (configuration not stated), the TGI (HOP-92 NSCLC) was over 100 µM, the TGI (HCT-15 colon) was over 100 µM and the TGI (NCI-H226 lung) was over 100 µM. The TGI (A498 renal) was over 100 µM, the TGI (SF-295 CNS) was over 100 µM and the TGI (MOLT-4 leukemia) was over 100 µM. It also gave a TGI (RPMI-8226 leukemia) of over 100 µM.
`N/N=C(/Cc1nc2ccc(C(=O)c3ccccc3)cc2[nH]c1=O)C(=O)Nc1ccc([N+](=O)[O-])cc1[N+](=O)[O-]` was tested, and the GI50 (HCT-15 colon) was over 100 µM, the TGI (HCT-15 colon) was over 100 µM and the GI50 (NCI-H226 lung) was over 100 µM. It also gave a TGI (NCI-H226 lung) of over 100 µM, a GI50 (A498 renal) of over 100 µM and a TGI (A498 renal) of over 100 µM. For the same compound, the GI50 (SF-295 CNS) was over 100 µM, the TGI (SF-295 CNS) was over 100 µM and the GI50 (MOLT-4 leukemia) was over 100 µM. For the same compound, the TGI (MOLT-4 leukemia) was over 100 µM, the GI50 (RPMI-8226 leukemia) was over 100 µM and the TGI (RPMI-8226 leukemia) was over 100 µM.
Work on `CCOC(=O)CC(NC(=O)c1[nH]cnc1/N=N/N(C)C)C(=O)OCC` (configuration not stated) yielded a TGI (HCT-15 colon) of over 100 µM, a TGI (NCI-H226 lung) of over 100 µM and a TGI (A498 renal) of over 100 µM. The TGI (SF-295 CNS) was over 100 µM, the TGI (MOLT-4 leukemia) was over 100 µM and the TGI (RPMI-8226 leukemia) was over 100 µM.
With `CC(=O)[CH-]C(=O)c1ccccc1.CC(=O)[CH-]C(=O)c1ccccc1.O=S(=O)([O-])c1cc([O-])c2c([O-])cc(S(=O)(=O)[O-])cc2c1.[Na+].[Zr+4]` the GI50 (HCT-15 colon) was over 100 µM, the TGI (HCT-15 colon) was over 100 µM and the GI50 (NCI-H226 lung) was 30.4 µM. The TGI (NCI-H226 lung) was 90.9 µM, the GI50 (A498 renal) was over 100 µM and the TGI (A498 renal) was over 100 µM. It also gave a GI50 (SF-295 CNS) of 69.8 µM, a TGI (SF-295 CNS) of over 100 µM and a GI50 (MOLT-4 leukemia) of 40.8 µM. The TGI (MOLT-4 leukemia) was over 100 µM, the GI50 (RPMI-8226 leukemia) was over 100 µM and the TGI (RPMI-8226 leukemia) was over 100 µM.
`CCNC(=O)OCc1c(COC(=O)NCC)c(-c2ccc(Cl)c(Cl)c2)n2c1CCC2` was tested, and the TGI (HOP-92 NSCLC) was 24.4 µM, the TGI (HCT-15 colon) was 36.9 µM and the TGI (NCI-H226 lung) was 7.85 µM. The TGI (SF-295 CNS) was 36.7 µM, the TGI (MOLT-4 leukemia) was 56.3 µM and the TGI (RPMI-8226 leukemia) was 27.9 µM.
With `O=C(Nc1ccc(Cl)cc1Cl)OC(Cn1cncn1)c1ccc(Cl)cc1Cl` (configuration not stated) the TGI (HCT-15 colon) was 31.1 µM, the TGI (NCI-H226 lung) was 39 µM and the TGI (A498 renal) was 34.2 µM. It also gave a TGI (SF-295 CNS) of 31.4 µM, a TGI (MOLT-4 leukemia) of over 100 µM and a TGI (RPMI-8226 leukemia) of over 100 µM.
Compound `COC(=O)C1=CC2C=CC(C1C(=O)OC)C1C(C(=O)OC)=C(C(=O)OC)C(C(=O)OC)=C(C(=O)OC)C21OC` (configuration not stated) has a TGI (HOP-92 NSCLC) of over 100 µM, a TGI (HCT-15 colon) of over 100 µM and a TGI (NCI-H226 lung) of over 100 µM. For the same compound, the TGI (A498 renal) was over 100 µM, the TGI (SF-295 CNS) was over 100 µM and the TGI (MOLT-4 leukemia) was over 100 µM. The TGI (RPMI-8226 leukemia) was over 100 µM.
Work on `COc1cc(OC)cc(-c2cc(=O)c3cc4c(cc3[nH]2)OCO4)c1` yielded a TGI (HOP-92 NSCLC) of 21.1 µM, a TGI (HCT-15 colon) of 22.8 µM and a TGI (NCI-H226 lung) of 1.06 µM. For the same compound, the TGI (SF-295 CNS) was 1.74 µM, the TGI (MOLT-4 leukemia) was over 51 µM and the TGI (RPMI-8226 leukemia) was over 58.8 µM.
Work on `O=C(/C=C/c1cccc([N+](=O)[O-])c1)c1ccc([N+](=O)[O-])cc1` yielded a TGI (HCT-15 colon) of over 100 µM, a TGI (NCI-H226 lung) of over 100 µM and a TGI (A498 renal) of over 100 µM. The TGI (SF-295 CNS) was over 100 µM and the TGI (MOLT-4 leukemia) was over 100 µM.
In the case of `O=C1c2ccccc2C2CCC1c1ccccc12` (configuration not stated), the TGI (HOP-92 NSCLC) is reported as 72.2 µM, the TGI (HCT-15 colon) is reported as over 100 µM and the TGI (NCI-H226 lung) is reported as over 100 µM. For the same compound, the TGI (A498 renal) was over 100 µM, the TGI (SF-295 CNS) was over 100 µM and the TGI (MOLT-4 leukemia) was 45.7 µM. It also gave a TGI (RPMI-8226 leukemia) of 57 µM.
Compound `CN(/N=C/c1ccnc2ccccc12)c1c([N+](=O)[O-])cc([N+](=O)[O-])cc1[N+](=O)[O-]` has a TGI (HOP-92 NSCLC) of over 100 µM, a TGI (HCT-15 colon) of over 100 µM and a TGI (NCI-H226 lung) of over 100 µM. For the same compound, the TGI (A498 renal) was over 100 µM, the TGI (SF-295 CNS) was over 100 µM and the TGI (MOLT-4 leukemia) was over 100 µM. The TGI (RPMI-8226 leukemia) was over 100 µM.
`CNS(=O)(=O)NNS(=O)(=O)c1ccc(OC)cc1` showed a TGI (HCT-15 colon) of over 100 µM, a TGI (A498 renal) of over 100 µM and a TGI (SF-295 CNS) of over 100 µM. It also gave a TGI (MOLT-4 leukemia) of over 100 µM and a TGI (RPMI-8226 leukemia) of over 100 µM.
For `Cc1cc(C)c(-c2c(N)cc(Br)cc2Br)c(N)c1`, the GI50 (HOP-92 NSCLC) was 2.77 µM, the TGI (HOP-92 NSCLC) was 9.4 µM and the GI50 (HCT-15 colon) was 4.7 µM. It also gave a TGI (HCT-15 colon) of 17.3 µM, a GI50 (NCI-H226 lung) of 11.8 µM and a TGI (NCI-H226 lung) of 26.5 µM. The GI50 (MCF7 breast) was 4.03 µM, the TGI (MCF7 breast) was 13.8 µM and the GI50 (A498 renal) was 2.35 µM. For the same compound, the TGI (A498 renal) was 14.4 µM, the GI50 (SF-295 CNS) was 3.16 µM and the TGI (SF-295 CNS) was 14.8 µM. The GI50 (NCI/ADR-RES ovarian) was 2.98 µM, the TGI (NCI/ADR-RES ovarian) was 9.11 µM and the GI50 (RPMI-8226 leukemia) was 5.19 µM. It also gave a TGI (RPMI-8226 leukemia) of 19.6 µM.
In the case of `CC1C2C=C(O)C(=O)C(C2=O)C1c1ccccc1` (configuration not stated), the TGI (HOP-92 NSCLC) is reported as over 100 µM, the TGI (HCT-15 colon) is reported as over 100 µM and the TGI (NCI-H226 lung) is reported as over 100 µM. It also gave a TGI (A498 renal) of over 100 µM, a TGI (SF-295 CNS) of over 100 µM and a TGI (MOLT-4 leukemia) of over 100 µM. For the same compound, the TGI (RPMI-8226 leukemia) was over 100 µM.
For `COc1c(-c2ccccc2)nc2ccc(Oc3ccccc3)nn12`, the TGI (HOP-92 NSCLC) was over 100 µM, the TGI (HCT-15 colon) was over 100 µM and the TGI (NCI-H226 lung) was 98.1 µM. For the same compound, the TGI (A498 renal) was over 66.5 µM, the TGI (SF-295 CNS) was over 100 µM and the TGI (MOLT-4 leukemia) was over 64.7 µM. For the same compound, the TGI (RPMI-8226 leukemia) was over 70.9 µM.
`Cn1cc2ccccc2c1-c1nc(F)nc(Oc2ccc3c(c2)CC[C@@H]2C3CC[C@@]3(C)C2C[C@H](O)[C@@H]3O)n1` (some centres not stated) showed a TGI (HOP-92 NSCLC) of 55.5 µM, a TGI (HCT-15 colon) of 24.6 µM and a TGI (A498 renal) of 47 µM. It also gave a TGI (SF-295 CNS) of 33.9 µM, a TGI (MOLT-4 leukemia) of 26.1 µM and a TGI (RPMI-8226 leukemia) of 41.9 µM.
In the case of `COC(=O)C1C(=O)O[C@@H](c2cc(OC)c(OC)cc2OC)C1C(=O)OC` (mixture of isomers), the TGI (HOP-92 NSCLC) is reported as over 100 µM, the TGI (HCT-15 colon) is reported as over 100 µM and the TGI (NCI-H226 lung) is reported as over 100 µM. The TGI (A498 renal) was over 100 µM, the TGI (SF-295 CNS) was over 100 µM and the TGI (MOLT-4 leukemia) was over 100 µM. The TGI (RPMI-8226 leukemia) was over 100 µM.
Work on `O=c1c(Cl)c(Cl)cnn1CCCl` yielded a TGI (HOP-92 NSCLC) of 3.48 µM, a TGI (HS 578T breast) of 12.8 µM and a TGI (HCT-15 colon) of 6.79 µM. For the same compound, the TGI (NCI-H226 lung) was 52.4 µM, the TGI (A498 renal) was 29 µM and the TGI (SF-295 CNS) was 31.4 µM. It also gave a TGI (MOLT-4 leukemia) of 7.46 µM and a TGI (RPMI-8226 leukemia) of over 47.1 µM.
